According to US4127687A, “Prevention of fouling of marine structures such as boat hulls” (Rohm and Haas Company, priority 1976, dated 1978):
Values after ≈ are worked out from the molar mass of the structure shown. Values joined by “and” are separate entries in the source; they are usually repeats but may differ in a detail not shown here. Equal entries are not always repeated.

What was measured:
[1] = Water solubility by UV spectrophotometric method; type: physicochemical; settings: for solubility: water, saturated solution, Table 1, read-out: Solubility by UV method
Method: The water solubilities of several isothiazolones were determined by UV spectrophotometric measurements of saturated aqueous solution of each compound in comparison with measurement of solutions of carefully prepared known concentration as outlined in the following example.
DETERMINATION OF SOLUBILITY OF 5-CHLORO-2-(4-FLUOROPHENYL)-4-METHYL-3-ISOTHIAZOLONE OF EXAMPLE 115
A sample of 5-chloro-2-(4-fluorophenyl)-4-methyl-3-isothiazolone (0.0406 g., 1.67 × 10^-4 mole) was dissolved in 50 ml. of methanol. A 5 ml. aliquot of the solution was diluted to 1000 ml. with deionized water, providing a solution of 1.67 × 10^-5 moles/liter concentration. An ultraviolet spectrum of this solution was run using a 10 cm. cell. The absorbance (As) at the wave length of maximum absorption (279 nm.) was 1.208. The molar absorptivity, AM, was calculated from the relationship
where b and c are path length or cell thickness and concentration respectively. Thus, AM was [formula]
Another sample of the compound (0.3-0.5 g.) was stirred vigorously in 40 ml. of deionized water for approximately 72 hrs. to give a saturated solution. The mixture was filtered through very fine filter paper (Whatman No. 50) to remove all suspended solid. Small portions of the filtrate were diluted with water by various factors until an approximately mid-scale absorbance was obtained upon running an ultraviolet spectrum. Such an absorbance was obtained at a dilution of 10. The absorbance was 0.975 in a 10 cm. cell. Using the value for AM obtained earlier, in the equation

[2] = test system: weed; test: Membrane Diffusion Raft Trials, weed control; type: in vivo, grass-like algal growth common in sea water; settings: membrane test, average 15 to 16 weeks of immersion
Description: (§1) 1). FIELD TESTS: - Membrane Diffusion Raft Trials
(§2) A specially constructed raft provides three types
(§3) a). Waterline Well illuminated, aerated
(§4) b). Flats Poorly illuminated deeper
(§5) A known quantity of the test compound is placed into a cylindrical plastic container whose open end is then covered with a membrane of known porosity; the complete unit is attached to the appropriate raft panel so that the poison can freely diffuse into the free water layer around it. Regular inspections, recording time and quantity of settlement, allow a life history of each membrane trial to be constructed. Each raft panel contains 35 compounds to be evaluated together with 4 standard poisons and 1 non-toxic membrane for control.
(§6) The behavior on the raft can thus be compared with that of the standard poisons and the non-toxic control. At normal loading a membrane over the standard poisons would be free from macro-fouling after six months immersion. Compounds showing selective effects against restricted groups of fouling organisms also show up by membrane testing.
(§7) After the completion of membrane tests the contents of all containers are checked visually for poison loss. An empty container indicates an unacceptably high solubility for long term effectiveness; where the poison loss is low the compound is tested in one of two ways depending on its performance against fouling.
(§8) In the membrane tests, the results of approximately 140 compounds evaluated appear in Table 1. The symbols "0" means no detactable effect, the symbol "+" indicates the compound is active against the given fouling organism, and the symbol "++" means that the compound appears to be effective over at least about a four month period for essentially preventing fouling activity by the given organism. In the Table, "weed" designates a grass-like algal growth common in sea water.
(§9) Membrane Test results are of an average 15 to 16 weeks of immersion,
(§10) ^a 0 = none, + = some, + + = effective.

[3] = test system: barnacle; test: Membrane Diffusion Raft Trials, barnacle control; type: in vivo, barnacles; settings: membrane test, average 15 to 16 weeks of immersion
Description: as §1, §2, §3, §4, §5, §6, §7, §8, §9, §10
^f The 1975 Spring settlement of barnacles was very meager and the […]

[4] = Amount of toxicant remaining in the test container after membrane diffusion raft tests; type: physicochemical; parameters: key: 0: empty or trace; +: some; + +: ample; settings: after completion of membrane diffusion raft tests
Description: as §5, §7
^b Amount of toxicants remaining in the test container after the
completion of the membrane diffusion raft tests: 0 = empty or trace, + =

| Structure (SMILES) | solubility [1] | Weed Control [2] | Barnacle Control [3] | Contents at the end of test (amount of toxicants remaining in the test container) [4] | solubility thermodynamic at 72 h ([1]; deionized water, stirred approximately 72 hrs., UV, read-out: concentration of the saturated solution) | solubility at 72 h ([1]; deionized water, stirred approximately 72 hrs., UV, read-out: solubility of this compound) |
| --- | --- | --- | --- | --- | --- | --- |
| O=c1cc(Cl)sn1Cc1ccccc1 [Example 31] | 390 µg/mL (≈ 1730 µM) | – | – | – | – | – |
| Cc1c(Cl)sn(Cc2ccc(Cl)cc2)c1=O [Example 110] | 34 µg/mL (≈ 124 µM) | + | + | + + | – | – |
| CC1CC(n2sc(Cl)c(Cl)c2=O)CC(C)(C)C1 (stereo not shown) [Example 68] | 45 µg/mL (≈ 153 µM) | – | – | – | – | – |
| CCCCCCCCn1sc(Cl)c(C)c1=O [Example 101] | 38 µg/mL (≈ 145 µM) | + + | + + | 0 | – | – |
| Cc1ccc(-n2sc(Cl)c(C)c2=O)cc1 [Example 120] | 60 µg/mL (≈ 250 µM) | – | – | – | – | – |
| CCCCCCCCCCCCCCCCn1sc(Cl)c(Cl)c1=O [Example 66] | 0.5 µg/mL (≈ 1.27 µM) | 0 | 0 | + + | – | – |
| Cc1c(Cl)sn(-c2cc(Cl)cc(Cl)c2)c1=O [Example 136] | 3 µg/mL (≈ 10.2 µM) | – | – | – | – | – |
| CCCCn1sc(Cl)c(Br)c1=O [Example 86] | 1170 µg/mL (≈ 4320 µM) | + + | 0 | 0 | – | – |
| Cc1c(Cl)sn(Cc2ccccc2)c1=O [Example 109] | 100 µg/mL (≈ 417 µM) | + + | + | 0 | – | – |
| O=c1c(Br)c(Cl)sn1C1CCCCC1 [Example 90] | 45 µg/mL (≈ 152 µM) | – | – | – | – | – |
| O=c1ccsn1-c1ccc(Cl)cc1 [Example 12] | 180 µg/mL (≈ 850 µM) | + | + | + | – | – |
| CC(c1ccccc1)n1sc(Cl)cc1=O (stereo not shown) [Example 30] | 420 µg/mL (≈ 1750 µM) | – | – | – | – | – |
| O=c1cc(Cl)sn1-c1ccccc1 [Example 33] | 180 µg/mL (≈ 850 µM) | + + | + | + | – | – |
| Cc1c(Cl)sn(-c2ccccc2Cl)c1=O [Example 112] | 23 µg/mL (≈ 88.4 µM) | – | – | – | – | – |
| CCCCC(CC)Cn1sc(Cl)c(C)c1=O (stereo not shown) [Example 103] | 102 µg/mL (≈ 390 µM) | – | – | – | – | – |
| Cc1c(Cl)sn(-c2ccccc2)c1=O [Example 111] | 200 µg/mL (≈ 886 µM) | + + | + | + | – | – |
| CC(C)(C)CC(C)(C)n1sc(Cl)cc1=O [Example 21] | 200 µg/mL (≈ 807 µM) | – | – | – | – | – |
| CCCCCCC(C)n1sc(Cl)c(Cl)c1=O (stereo not shown) [Example 60] | 50 µg/mL (≈ 177 µM) | – | – | – | – | – |
| CC(C)CCCC(C)n1sc(Cl)cc1=O (stereo not shown) [Example 19] | 190 µg/mL (≈ 767 µM) | – | – | – | – | – |
| CCCCCCCCn1sc(Br)c(Br)c1=O [Example 95] | 1.7 µg/mL (≈ 4.58 µM) | + + | 0 | 0 | – | – |
| Cc1c(Cl)sn(-c2ccc(Cl)cc2Cl)c1=O [Example 135] | 4 µg/mL (≈ 13.6 µM) | – | – | – | – | – |

| Structure (SMILES) | solubility [1] | Weed Control [2] | Barnacle Control [3] | Contents at the end of test (amount of toxicants remaining in the test container) [4] | solubility thermodynamic at 72 h ([1]; deionized water, stirred approximately 72 hrs., UV, read-out: concentration of the saturated solution) | solubility at 72 h ([1]; deionized water, stirred approximately 72 hrs., UV, read-out: solubility of this compound) |
| --- | --- | --- | --- | --- | --- | --- |
| CCC(C)CC(CC)n1sc(Cl)cc1=O (stereo not shown) [Example 20] | 300 µg/mL (≈ 1210 µM) | – | – | – | – | – |
| CCC(C)CC(CC)n1sc(Cl)c(Cl)c1=O (stereo not shown) [Example 62] | 85 µg/mL (≈ 301 µM) | – | – | – | – | – |
| Cc1c(Cl)sn(-c2ccc(Br)cc2)c1=O [Example 116] | 7 µg/mL (≈ 23 µM) | – | – | – | – | – |
| CCCCCCC(C)n1sc(Cl)cc1=O (stereo not shown) [Example 18] | 175 µg/mL (≈ 706 µM) | – | – | – | – | – |
| CCCCCCCCn1scc(Br)c1=O [Example 48] | 45 µg/mL (≈ 154 µM) | 0 | 0 | + | – | – |
| O=c1cc(Cl)sn1CCc1ccccc1 [Example 29] | 240 µg/mL (≈ 1000 µM) | + + | 0 | 0 | – | – |
| CCCCCCCCCCCCn1sc(Cl)c(Cl)c1=O [Example 64] | 0.1 to 3 µg/mL (≈ 0.296 to 8.87 µM) | 0 | + | + + | – | – |
| Cc1c(Cl)sn(-c2ccc(F)cc2)c1=O [Example 115, 5-chloro-2-(4-fluorophenyl)-4-methyl-3-isothiazolone] | 35 µg/mL (≈ 144 µM) | – | – | – | 135 µM and 32.8 µg/mL | 33 µg/mL (≈ 135 µM) |
| CCCCCCCCCCCCCCn1sc(Cl)c(Cl)c1=O [Example 65] | 0.9 µg/mL (≈ 2.46 µM) | 0 | 0 | + + | – | – |
| Cc1c(Cl)sn(-c2ccc(Cl)c(Cl)c2)c1=O [Example 134] | 3.5 µg/mL (≈ 11.9 µM) | 0 | 0 | + + | – | – |
| Cc1c(Cl)sn(C2CCCCC2)c1=O [Example 107] | 350 µg/mL (≈ 1510 µM) | 0 | + | + | – | – |
| CC1CC(n2sc(Cl)cc2=O)CC(C)(C)C1 (stereo not shown) [Example 28] | 185 µg/mL (≈ 712 µM) | – | – | – | – | – |
| CC(c1ccccc1)n1sc(Cl)c(Cl)c1=O (stereo not shown) [Example 70] | 50 µg/mL (≈ 182 µM) | – | – | – | – | – |
| O=c1cc(Cl)sn1C1CCCCC1 [Example 27] | 217 µg/mL (≈ 997 µM) | 0 | + | + | – | – |
| Cc1c(Cl)sn(-c2ccc(C(F)(F)F)cc2)c1=O [Example 130] | 7 µg/mL (≈ 23.8 µM) | – | – | – | – | – |
| O=c1ccsn1Cc1ccccc1 [Example 10] | 3000 µg/mL (≈ 15700 µM) | 0 | 0 | 0 | – | – |
| Cc1c(Cl)sn(-c2cccc(C(F)(F)F)c2)c1=O [Example 129] | 12 µg/mL (≈ 40.9 µM) | – | – | – | – | – |
| CC(C)CCCC(C)n1sc(Cl)c(Cl)c1=O (stereo not shown) [Example 61] | 55 µg/mL (≈ 195 µM) | – | – | – | – | – |
| CCCCCCn1sc(Cl)cc1=O [Example 15] | 900 µg/mL (≈ 4100 µM) | 0 | 0 | 0 | – | – |
| CCCCCCn1sc(Cl)c(Br)c1=O [Example 87] | 85 µg/mL (≈ 285 µM) | + + | + + | 0 | – | – |
